These results are taken from ChEMBL document CHEMBL1201862, “PubChem BioAssay data set” (2004).

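Grown in 96-well plates, cells were treated for 48 hours with each compound at five concentrations. Insufficient inhibition: endpoint recorded as highest concentration tested. GI50 = concentration required for 50% inhibition of growth.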 The source made the active and inactive calls. Rule as the data show it: active = GI50 up to about 1.1 µM and inactive = higher.

What all share (test): NCI anticancer screen, dose series, 48 h
For test [1], the system named is SK-OV-3.
Test [2] has as its system HOP-62.
Test [3] deals with Malme-3M.
Test [4] has as its system U-251.
Test [5] deals with TK-10.
Test [6] concerns KM12.
The subject of test [7] is DLD-1.
Test [8] relates to CAKI-1.
In test [9] the test system is SK-MEL-2.
In test [10] the test system is K562.
The test system of test [11] is RXF 393.
Test [12] relates to SK-MEL-5.
The subject of test [13] is ACHN.
Test [14] concerns NCI-H460.
The test system of test [15] is NCI-H226.
Test [16] relates to A549.
Test [17] relates to OVCAR-5.
The subject of test [18] is A498.
Test [19] relates to UACC-257.
The test system of test [20] is Hs-578T.

`CC(C)(C)C(=O)OC12/C(=N/O)CCCCCC1c1ccccc12` (centres undefined): the GI50 in [1] is 18.7 µM (inactive); in [2] it was 21.7 µM (inactive); in test [3], 21 µM (inactive); in test [4], 17.7 µM (inactive); in test [5], 15.9 µM (inactive); in test [6] it was 16.1 µM (inactive). Further, the GI50 in [7] is 19.5 µM (inactive); in [8] it was 11.9 µM (inactive); in test [9], 19.2 µM (inactive); in test [10] it was 19.5 µM (inactive); in test [11] it was 19.5 µM (inactive); in test [12] it was 17.8 µM (inactive). For the same compound, the GI50 in test [13] is 17.9 µM (inactive); in [14], 17.3 µM (inactive); in test [15] it was 17.7 µM (inactive); in [16], 17.8 µM (inactive); in test [17], 15.3 µM (inactive); in [18], 16.9 µM (inactive). Moreover, in test [19], the GI50 was 15 µM (inactive).
Take `CCc1c(CNc2ccc(C(=O)NC(CC(=O)O)C(=O)O)cc2)ccc2nc(N)nc(N)c12` (centres undefined): the GI50 was > 20 µM (inactive) in test [1]; 0.267 µM (active) in test [2]; 0.953 µM (active) in test [3]; 15.3 µM (inactive) in test [5]; < 0.0223 µM (active) in test [7]; < 0.0198 µM (active) in [8]. Besides, the GI50 is > 100 µM (inactive) in [9]; < 0.01 µM (active) in [10]; > 4.65 µM (inactive) in test [11]; > 1000 µM (inactive) in test [20]; < 0.0346 µM (active) in test [12]; < 0.01 µM (active) in [13]. Besides, the GI50 in test [14] is < 0.0158 µM (active); in [15], > 100 µM (inactive); in test [16], < 0.0169 µM (active); in test [17], 1.82 µM (inactive); in test [18], 2.03 µM (inactive); in [19], 5.19 µM (inactive).
In the case of `COc1ccc(C(=O)C(C(=O)C(=O)Nc2ccc(Cl)c(Cl)c2)c2ccc(OC)cc2)cc1` (centres undefined), the GI50 in test [2], in [3], in test [4], in test [5], in test [6] and in [7] was > 100 µM (inactive) each time. The GI50 in test [8], in [9], in test [10], in test [11], in test [12] and in test [13] was > 100 µM (inactive) each time. In addition, the GI50 in test [14], in [15], in test [16], in test [17], in [18] and in [19] was > 100 µM (inactive) in each case.
`CC(=O)OC1C(CCl)OC(N=[N+]=[N-])C(OC(C)=O)C1OC(C)=O` (centres undefined): the GI50 in test [1], in test [2], in [3], in test [4], in test [5] and in test [6] was > 100 µM (inactive) each time. Moreover, the GI50 in test [7], in test [8], in test [9], in test [10], in [11] and in test [12] was > 100 µM (inactive) in each case. Besides, the GI50 in test [13], in test [14], in [16], in test [18] and in test [19] was > 100 µM (inactive) throughout.
Turning to `O=C(O)C1(c2ccccc2)CCCNCC1` (centres undefined), the GI50 in [1], in test [2], in [3], in [4], in test [5] and in test [6] was > 100 µM (inactive) throughout. Moreover, the GI50 in [7], in [8], in test [9], in test [10], in test [11] and in [12] was > 100 µM (inactive) each time. In addition, the GI50 in test [13], in test [14], in test [15], in test [16], in test [17] and in [18] was > 100 µM (inactive) each time. In addition, the GI50 in [19] was > 100 µM (inactive).
With `CN(C)C(=S)/N=c1\ssc(=S)n1-c1ccccc1`, the GI50 in test [1] is 83.9 µM (inactive); in [2] it was 34.2 µM (inactive); in test [3], 16.9 µM (inactive); in test [4] it was 15.8 µM (inactive); in test [5] it was 16.9 µM (inactive); in [6], 5.38 µM (inactive). In addition, the GI50 in [7] was 13.8 µM (inactive); in test [8], 19.2 µM (inactive); in test [9] it was 8.75 µM (inactive); in test [10], 17.1 µM (inactive); in test [11] it was 18.7 µM (inactive); in test [12] it was 32.7 µM (inactive). For the same compound, the GI50 in [13] is 16.7 µM (inactive); in test [14], 16.1 µM (inactive); in [15] it was 10.1 µM (inactive); in test [16], 25.3 µM (inactive); in test [17] it was 16 µM (inactive); in test [18], 21.3 µM (inactive). The GI50 in test [19] is 15.7 µM (inactive).
For `COc1cccc(/C=C(/C(=O)O)c2cc(OC)c(OC)c(OC)c2)c1`, the GI50 in test [2], in [3], in test [4], in test [5], in [6] and in [7] was > 100 µM (inactive) throughout. The GI50 in [8] was > 100 µM (inactive); in [10] it was 51.8 µM (inactive); in [11], 45.2 µM (inactive); in [12] it was > 100 µM (inactive); in test [13], > 100 µM (inactive); in test [14], > 100 µM (inactive). Besides, the GI50 in test [15], in test [16], in test [18] and in test [19] was > 100 µM (inactive) throughout.
Take `COc1ccc2[nH]cc(CCNC(C)=O)c2c1` [MELATONIN]: the GI50 in test [1], in test [2], in test [3], in [4], in test [5] and in test [6] was > 100 µM (inactive) each time. In addition, the GI50 in [7] is > 100 µM (inactive); in test [8], > 100 µM (inactive); in [9] it was > 100 µM (inactive); in [10], 39.1 µM (inactive); in test [11], > 100 µM (inactive); in test [12], > 100 µM (inactive). The GI50 in [13], in test [14], in test [16], in test [17], in [18] and in test [19] was > 100 µM (inactive) in each case.
In the case of `CCCCCCCCCCCCCCCCOP(=O)([O-])OCC[N+](C)(C)C` [MILTEFOSINE], the GI50 in test [1] was 8.91 µM (inactive); in test [2], 14.9 µM (inactive); in [3], 21.8 µM (inactive); in test [4], 15.3 µM (inactive); in [5] it was 2.1 µM (inactive); in test [6] it was 2.74 µM (inactive). Moreover, the GI50 in [7] is 18.9 µM (inactive); in [8], 10.3 µM (inactive); in [9], 21 µM (inactive); in test [10] it was 39 µM (inactive); in test [11], 5.9 µM (inactive); in test [20] it was 19.3 µM (inactive). Also, the GI50 in test [12] is 23.8 µM (inactive); in test [13], 16 µM (inactive); in [14] it was 6 µM (inactive); in test [15] it was 20.7 µM (inactive); in test [16], 7.11 µM (inactive); in test [17] it was 8.17 µM (inactive). Further, the results for the GI50 in [18] and in test [19] were 12.9 µM (inactive) and 30.6 µM (inactive), respectively.
